Publication PMC7827406, “Structure–Activity Relationship (SAR) Study of Spautin-1 to Entail the Discovery of Novel NEK4 Inhibitors” (International Journal of Molecular Sciences, 2021)
Where two headings read alike, the source gives them in different places.

How the values were obtained:
Experiment in all cases: biochemical
Set-up in all cases: Eurofins KinaseProfiler full panel at Km ATP, residual kinase activity (%) relative to DMSO
LATS2(h) = target: T1, LATS2(h) (Homo sapiens, UniProt Q9NRM7)
T1 sequence (Q9NRM7 1-1088): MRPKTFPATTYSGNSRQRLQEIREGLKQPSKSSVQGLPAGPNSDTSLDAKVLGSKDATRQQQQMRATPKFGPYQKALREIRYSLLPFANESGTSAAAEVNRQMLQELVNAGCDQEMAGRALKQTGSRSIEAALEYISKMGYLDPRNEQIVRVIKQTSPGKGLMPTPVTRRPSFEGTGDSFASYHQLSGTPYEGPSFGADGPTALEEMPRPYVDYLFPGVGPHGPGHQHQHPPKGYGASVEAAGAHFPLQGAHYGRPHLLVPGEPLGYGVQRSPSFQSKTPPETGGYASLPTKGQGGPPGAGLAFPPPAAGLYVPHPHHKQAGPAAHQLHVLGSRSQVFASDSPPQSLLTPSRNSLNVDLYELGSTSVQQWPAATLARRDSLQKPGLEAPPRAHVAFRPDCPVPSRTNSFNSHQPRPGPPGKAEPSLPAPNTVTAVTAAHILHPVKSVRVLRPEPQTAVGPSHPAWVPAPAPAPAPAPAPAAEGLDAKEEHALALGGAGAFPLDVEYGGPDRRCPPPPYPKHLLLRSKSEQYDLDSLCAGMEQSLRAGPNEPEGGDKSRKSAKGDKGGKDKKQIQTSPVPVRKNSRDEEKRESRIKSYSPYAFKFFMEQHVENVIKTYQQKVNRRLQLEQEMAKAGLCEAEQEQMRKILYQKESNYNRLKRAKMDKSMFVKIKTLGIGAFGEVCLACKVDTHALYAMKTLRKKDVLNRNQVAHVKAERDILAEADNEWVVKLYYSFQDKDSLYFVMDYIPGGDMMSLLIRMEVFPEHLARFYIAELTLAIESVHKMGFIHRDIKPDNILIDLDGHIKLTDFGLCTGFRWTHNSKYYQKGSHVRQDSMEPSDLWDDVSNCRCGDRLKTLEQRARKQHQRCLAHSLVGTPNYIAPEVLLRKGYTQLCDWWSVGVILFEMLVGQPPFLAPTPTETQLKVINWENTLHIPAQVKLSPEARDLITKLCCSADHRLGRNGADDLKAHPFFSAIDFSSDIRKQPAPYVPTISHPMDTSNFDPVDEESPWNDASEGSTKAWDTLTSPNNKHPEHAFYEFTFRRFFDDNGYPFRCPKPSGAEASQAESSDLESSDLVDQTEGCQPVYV
How it was run: (§1)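 Two 10 µM single-concentration screens were run: a competition-binding screen, in which DNA-tagged kinase bound to immobilized ligands was quantified by qPCR, and a radiometric activity panel at Km ATP. Each is expressed as residual kinase activity (%).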

MAP4K4(h) = MAP4K4(h) (Homo sapiens, UniProt O95819)
How it was run: as §1

TLK1(h) = target: T2, TLK1(h) (Homo sapiens, UniProt Q9UKI8)
T2 sequence (Q9UKI8 1-766): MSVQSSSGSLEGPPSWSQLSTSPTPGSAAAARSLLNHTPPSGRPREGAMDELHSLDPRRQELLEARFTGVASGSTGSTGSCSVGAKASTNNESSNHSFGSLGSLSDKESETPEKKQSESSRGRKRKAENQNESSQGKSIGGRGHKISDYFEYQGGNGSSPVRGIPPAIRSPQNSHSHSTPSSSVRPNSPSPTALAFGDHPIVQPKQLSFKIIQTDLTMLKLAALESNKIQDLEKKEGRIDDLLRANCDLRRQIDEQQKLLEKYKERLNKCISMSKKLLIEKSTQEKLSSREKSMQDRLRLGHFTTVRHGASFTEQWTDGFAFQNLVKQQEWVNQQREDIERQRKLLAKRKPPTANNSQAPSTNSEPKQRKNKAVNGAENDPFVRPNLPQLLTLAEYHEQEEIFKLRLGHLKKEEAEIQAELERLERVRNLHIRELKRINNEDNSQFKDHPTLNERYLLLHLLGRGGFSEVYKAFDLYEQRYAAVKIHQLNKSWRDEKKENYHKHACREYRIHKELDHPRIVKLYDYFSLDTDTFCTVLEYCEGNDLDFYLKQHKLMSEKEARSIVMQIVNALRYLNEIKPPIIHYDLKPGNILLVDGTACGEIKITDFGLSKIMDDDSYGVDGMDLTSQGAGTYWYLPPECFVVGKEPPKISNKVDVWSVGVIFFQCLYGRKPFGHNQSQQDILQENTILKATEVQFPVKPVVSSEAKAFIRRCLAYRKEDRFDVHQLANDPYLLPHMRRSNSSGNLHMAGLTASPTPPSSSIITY
How it was run: as §1

[1] = read-out: Residual activity (%) Spautin-1 5aa
[2] = read-out: Residual activity (%) 5as
[3] = read-out: Residual activity (%) 5at
[4] = read-out: Residual activity (%) 5ay

Sequence of MAP4K4(h) (O95819 whole entry): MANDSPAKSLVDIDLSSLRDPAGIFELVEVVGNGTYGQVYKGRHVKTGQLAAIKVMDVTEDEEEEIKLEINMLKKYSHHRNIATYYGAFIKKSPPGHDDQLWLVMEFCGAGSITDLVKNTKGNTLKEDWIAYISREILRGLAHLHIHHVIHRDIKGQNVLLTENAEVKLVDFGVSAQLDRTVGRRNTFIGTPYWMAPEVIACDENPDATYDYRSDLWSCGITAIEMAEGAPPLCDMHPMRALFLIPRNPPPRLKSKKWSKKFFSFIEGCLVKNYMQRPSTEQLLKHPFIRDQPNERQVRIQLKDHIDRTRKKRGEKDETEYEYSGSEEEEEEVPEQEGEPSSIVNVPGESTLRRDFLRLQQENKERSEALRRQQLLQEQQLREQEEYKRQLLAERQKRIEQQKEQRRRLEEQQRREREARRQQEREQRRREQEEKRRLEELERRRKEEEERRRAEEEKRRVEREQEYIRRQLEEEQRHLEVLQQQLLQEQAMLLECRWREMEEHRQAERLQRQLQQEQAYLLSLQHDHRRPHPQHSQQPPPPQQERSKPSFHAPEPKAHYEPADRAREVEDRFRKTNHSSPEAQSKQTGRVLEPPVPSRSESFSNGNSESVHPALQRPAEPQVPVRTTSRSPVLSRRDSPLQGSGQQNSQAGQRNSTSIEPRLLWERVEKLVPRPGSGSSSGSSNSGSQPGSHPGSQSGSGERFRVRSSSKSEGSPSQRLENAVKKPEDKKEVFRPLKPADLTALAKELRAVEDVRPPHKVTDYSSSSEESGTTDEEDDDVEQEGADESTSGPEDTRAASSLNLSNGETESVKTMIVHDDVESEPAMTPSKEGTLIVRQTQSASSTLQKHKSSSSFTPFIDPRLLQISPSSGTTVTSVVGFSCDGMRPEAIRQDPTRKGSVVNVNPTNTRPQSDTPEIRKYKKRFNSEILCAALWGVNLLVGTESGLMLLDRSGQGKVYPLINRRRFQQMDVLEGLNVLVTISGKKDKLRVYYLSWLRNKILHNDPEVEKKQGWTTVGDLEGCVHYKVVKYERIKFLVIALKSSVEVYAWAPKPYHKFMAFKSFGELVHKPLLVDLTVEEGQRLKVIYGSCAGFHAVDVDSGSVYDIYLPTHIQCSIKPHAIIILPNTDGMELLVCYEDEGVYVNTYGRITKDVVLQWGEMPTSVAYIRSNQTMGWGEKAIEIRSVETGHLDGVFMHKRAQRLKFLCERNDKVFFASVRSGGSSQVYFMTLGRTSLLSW

Compound: Fc1ccc(CNc2ncnc3ccc(F)cc23)cc1 [5aa, 6-Fluoro-N-(4-fluorobenzyl)-4-Quinazolinamine]
- remaining activity at 10 µM (LATS2(h); [1]): 94%
- remaining activity at 10 µM (MAP4K4(h); [1]): 75%
- remaining activity at 10 µM (TLK1(h); [1]): 112%

Compound: Fc1ccc(CCNc2ncnc3ccc(F)cc23)cc1 [5as, 6-Fluoro-N-[2-(4-Fluorophenyl)Ethyl]-4-Quinazolinamine]
- remaining activity at 10 µM (LATS2(h); [2]): 74%
- remaining activity at 10 µM (MAP4K4(h); [2]): 75%
- remaining activity at 10 µM (TLK1(h); [2]): 112%

Compound: Fc1ccc2ncnc(NCCc3ccc(Cl)cc3)c2c1 [5at, N-[2-(4-Chlorophenyl)Ethyl]-6-Fluoro-4-Quinazolinamine]
- remaining activity at 10 µM (LATS2(h); [3]): 75%
- remaining activity at 10 µM (MAP4K4(h); [3]): 92%
- remaining activity at 10 µM (TLK1(h); [3]): 97%

Compound: COc1ccc2ncnc(Nc3cccc(F)c3)c2c1 [5ay, N-(3-Fluorophenyl)-6-Methoxy-4-Quinazolinamine]
- remaining activity at 10 µM (LATS2(h); [4]): 72%
- remaining activity at 10 µM (MAP4K4(h); [4]): 73%
- remaining activity at 10 µM (TLK1(h); [4]): 107%
